Assay results: patent EP0195316A1, “Quinolonecarboxylic acid derivatives” (KYORIN PHARMACEUTICAL CO., LTD., priority 1985, dated 1986)
≈ marks a conversion by molar mass, not a printed value. Like-named read-outs stand apart in the source and are kept apart here.

Key:
[1] = system: C. freundii; assay: MIC, in vitro antibacterial activity (clinical isolates); format: cell-based; details: Citrobacter freundii, No. of strains 9
[2] = system: Citrobacter freundii IID 976; assay: MIC, in vitro antibacterial activity (standard strains); format: cell-based; details: IID976
[3] = system: Propionibacterium acens 11828; assay: as above; format: cell-based; details: Propionibacterium acens 11828, 10^6 cells/ml, Gram +
[4] = system: S. pneumoniae; assay: MIC, in vitro antibacterial activity (clinical isolates); format: cell-based; details: Streptococcus pneumoniae; clinical isolates S. pneumoniae, No. of strains 6; read-out: MIC
[5] = system: Salmonella enteritidis IID 604; assay: MIC, in vitro antibacterial activity (standard strains); format: cell-based; details: Salmonella enterica
[6] = system: S. aureus Smith; format: cell-based; details: Conc. of Drugs 2MIC
[7] = system: K. pneumoniae 1-220S; assay: MIC, in vitro antibacterial activity (standard strains); format: cell-based; details: Klebsiella pneumoniae, 1220S; K. pneumoniae 1-220S, 10^6 cells/ml, Gram -; read-out: MIC
[8] = system: E. faecalis IID 682; assay: as above; format: cell-based; details: Enterococcus faecalis, IID682; E. faecalis IID 682, 10^6 cells/ml, Gram +
[9] = system: Veillonella parvula KYA 10790; assay: as above; format: cell-based; details: KYA10790; Veillonella parvula KYA 10790, 10^6 cells/ml, Gram -
[10] = system: S. marcescens IID 618; format: cell-based
[11] = system: S. marcescens GN 7577; format: cell-based
[12] = system: P. vulgaris; assay: MIC, in vitro antibacterial activity (clinical isolates); format: cell-based; details: Proteus vulgaris, No. of strains 6
[13] = system: Bacteroides fragilis 2; assay: Experimental local infection with anaerobic bacteria in granuloma pouches in rats; format: in vivo; details: 25 mg/kg, p.o., pouch exudate, Mean ± S.D. (n=3)
Protocol: Under ether anesthesia, male Wistar rats (7 weeks old) were injected subcutaneously on the back with 20 ml of germ-free air (sterilized by membrane filtration, 0.45 µm pore size) by means of a syringe. Continuously, an inflammatory reaction was induced by injecting one ml of sterile croton oil solution (1 % in olive oil) into the formed air pouch. After 2 days, the air was removed. On the eighth day, 0.5 ml of Bacteroides fragilis 2 culture (10^6 CFU/ml) were injected into bore granuloma pouches. Each compound was administered orally or subcutaneously at 2 hours after infection. […] During experiment, intake of food and water was free. It was known that the activity of the existing quinolonecarboxylic acid compounds against obligate anaerobic bacteria was very weak. […] This property is also one of excellent characters of the present comound.

[14] = system: C. perfringens KYA 13123; assay: microbe, parasite or virus in culture; format: cell-based; details: Clostridium perfringens, KYA13123
[15] = system: Bacillus subtilis PCI 219; assay: MIC, in vitro antibacterial activity (standard strains); format: cell-based; details: PCI219; Bacillus subtilis PCI 219, 10^6 cells/ml, Gram +
[16] = system: E. cloacae; assay: MIC, in vitro antibacterial activity (clinical isolates); format: cell-based; details: Enterobacter cloacae
[17] = system: Acinetobacter sp.; assay: as above; format: cell-based; details: clinical isolates Acinetobacter sp., No. of strains 13; read-out: MIC
[18] = system: MR-S. aureus; assay: as above; format: cell-based; details: Staphylococcus aureus, No. of strains 46
[19] = system: P. morganii IID 602; assay: MIC, in vitro antibacterial activity (standard strains); format: cell-based; details: Morganella morganii, IID602; P. morganii IID 602, 10^6 cells/ml, Gram -
[20] = system: Serratia marcescens IID 618; assay: as above; format: cell-based; details: IID618; Serratia marcescens IID 618, 10^6 cells/ml, Gram -
[21] = system: S. epidermidis IID 866; assay: as above; format: cell-based; details: Staphylococcus epidermidis, IID866; S. epidermidis IID 866, 10^6 cells/ml, Gram +
[22] = system: F. varium KYA 8501; assay: as above; format: cell-based; details: Fusobacterium varium, KYA8501; F. varium KYA 8501, 10^6 cells/ml, Gram -; read-out: MIC
[23] = system: Staphylococcus aureus 209 P; assay: as above; format: cell-based; details: 10^6 cells/ml, Gram +
[24] = system: Eubacterium lentum GAI 5242; assay: as above; format: cell-based; details: Eggerthella lenta, GAI5242; Eubacterium lentum GAI 5242, 10^6 cells/ml, Gram +
[25] = system: S. aureus IID 670 (Terajima); assay: as above; format: cell-based; details: Staphylococcus aureus, IID670, 10^6 cells/ml, Gram +
[26] = system: B. thetaiotaomicron (0661); assay: as above; format: cell-based; details: Bacteroides thetaiotaomicron; B. thetaiotaomicron (0661), 10^6 cells/ml, Gram -; read-out: MIC
[27] = system: H. influenzae; assay: MIC, in vitro antibacterial activity (clinical isolates); format: cell-based; details: Haemophilus influenzae, No. of strains 26
[28] = system: P. mirabilis IID 994; assay: MIC, in vitro antibacterial activity (standard strains); format: cell-based; details: Proteus mirabilis, IID994
[29] = system: B. fragilis 25285; assay: as above; format: cell-based; details: Bacteroides fragilis; B. fragilis 25285, 10^6 cells/ml, Gram -
[30] = system: N. meningitidis; assay: MIC, in vitro antibacterial activity (clinical isolates); format: cell-based; details: Neisseria meningitidis, No. of strains 3
[31] = system: C. ramosum; assay: MIC, in vitro antibacterial activity (standard strains); format: cell-based; details: Thomasclavelia ramosa, 10^6 cells/ml, Gram +
[32] = system: Peptostreptococcus anaerobius KYA 27337; assay: as above; format: cell-based; details: KYA27337; Peptostreptococcus anaerobius KYA 27337, 10^6 cells/ml, Gram +
[33] = system: Proteus vulgaris IFO 3167; assay: as above; format: cell-based; details: Proteus vulgaris, IFO3167
[34] = S. marcescens IID 618, Conc. of Drugs 2MIC
[35] = S. marcescens IID 618, Conc. of Drugs 4MIC
[36] = S. marcescens GN 7577, Conc. of Drugs 4MIC
[37] = S. marcescens GN 7577, Conc. of Drugs 8MIC

Work on `CC1CN(c2c(F)cc3c(=O)c(C(=O)O)cn(C4CC4)c3c2Cl)CCN1` (stereo not shown) [Ref.2, 8-Chloro-1-cyclopropyl-6-fluoro-1,4-dihydro-7-(3-methyl-1-piperazinyl)-4-oxo-3-quinolinecarboxylic acid] yielded an MIC [1] of 0.2 µg/mL (≈ 0.527 µM), an MIC ([2]; Citrobacter freundii IID 976, 10^6 cells/ml, Gram -, read-out: MIC) of 0.05 µg/mL (≈ 0.132 µM) and an MIC [3] of 3.13 µg/mL. For the same compound, the MIC [4] was 0.78 µg/mL (≈ 2.05 µM), the MIC ([5]; Salmonella enteritidis IID 604, 10^6 cells/ml, Gram -, read-out: MIC) was 0.05 µg/mL (≈ 0.132 µM) and the “Frequency of spontaneous resistant mutants” value (from here on “Frequency”) [6] was 3.6 × 10^-7. The MIC [7] was 0.05 µg/mL (≈ 0.132 µM), the MIC [8] was 0.39 µg/mL and the MIC [9] was 0.2 µg/mL (≈ 0.527 µM). The “Frequency” value [10, 34] was 1.0 × 10^-7, the “Frequency” value [10, 35] was <1.0 × 10^-9 and the “Frequency” value [11, 36] was 9.9 × 10^-7. The “Frequency” value [11, 37] was 2.1 × 10^-9, the MIC [12] was 0.05 µg/mL (≈ 0.132 µM) and the “Viable cells count (log) / ml” value ([13]; 6 hr) was 5.1 ± 0.21 (log) / ml. For the same compound, the “Viable cells count (log) / ml” value ([13]; 24 hr) was 4.5 ± 0.55 (log) / ml, the MIC [14] was 0.39 µg/mL (≈ 1.03 µM) and the MIC [15] was 0.025 µg/mL. The MIC [16] was 0.05 µg/mL (≈ 0.132 µM), the MIC [17] was 0.78 µg/mL (≈ 2.05 µM) and the MIC [18] was 0.39 µg/mL (≈ 1.03 µM). For the same compound, the MIC [19] was 0.05 µg/mL (≈ 0.132 µM), the MIC [20] was 0.05 µg/mL (≈ 0.132 µM) and the MIC [21] was 0.1 µg/mL. For the same compound, the MIC [22] was 3.13 µg/mL (≈ 8.24 µM), the MIC [23] was 0.1 µg/mL and the MIC [24] was 0.2 µg/mL. It also gave an MIC [25] of 0.1 µg/mL, an MIC [26] of 0.78 µg/mL (≈ 2.05 µM) and an MIC [27] of 0.025 µg/mL (≈ 0.0658 µM). The MIC [28] was 0.0125 µg/mL (≈ 0.0329 µM), the MIC [29] was 0.39 µg/mL (≈ 1.03 µM) and the MIC [30] was 6 ng/mL (≈ 0.0158 µM). It also gave an MIC [31] of 3.13 µg/mL, an MIC [32] of 0.78 µg/mL and an MIC [33] of 0.0125 µg/mL (≈ 0.0329 µM).
In the case of `NC1CCN(c2c(F)cc3c(=O)c(C(=O)O)cn(C4CC4)c3c2Cl)C1` (stereo not drawn) [Example 25, 7-(3-Amino-l-pyrrolidinyl)-8-chloro-l-cyclopropyl-6-fluoro-1,4-dihydro-4-oxo-3-quinolinecarboxylic acid], the MIC [1] is reported as 0.1 µg/mL (≈ 0.273 µM), the MIC ([2]; Citrobacter freundii) is reported as 0.0125 µg/mL (≈ 0.0342 µM) and the MIC [3] is reported as 1.56 µg/mL. For the same compound, the MIC [4] was 0.1 µg/mL (≈ 0.273 µM), the MIC [5] was 0.0125 µg/mL (≈ 0.0342 µM) and the “Frequency” value [6] was <2.9 × 10^-9. It also gave an MIC [7] of 0.05 µg/mL (≈ 0.137 µM), an MIC [8] of 0.1 µg/mL and an MIC [9] of 0.05 µg/mL (≈ 0.137 µM). For the same compound, the “Frequency” value [10, 34] was 1.5 × 10^-8, the “Frequency” value [10, 35] was <1.0 × 10^-9 and the “Frequency” value ([11]; S. marcescens GN 7577, Conc. of Drugs 2MIC) was 2.3 × 10^-7. For the same compound, the “Frequency” value [11, 36] was <5.3 × 10^-10, the “Frequency” value [11, 37] was <5.3 × 10^-10 and the MIC [12] was 0.05 µg/mL (≈ 0.137 µM). For the same compound, the “Viable cells count (log) / ml” value ([13]; 6 hr) was 4.6 ± 0.31 (log) / ml, the “Viable cells count (log) / ml” value ([13]; 24 hr) was 4.5 ± 0.15 (log) / ml and the MIC [14] was 0.1 µg/mL (≈ 0.273 µM). The MIC [15] was 0.025 µg/mL, the MIC [16] was 0.013 µg/mL (≈ 0.0355 µM) and the MIC [17] was 0.1 µg/mL (≈ 0.273 µM). It also gave an MIC [18] of 0.1 µg/mL (≈ 0.273 µM), an MIC [19] of 0.05 µg/mL (≈ 0.137 µM) and an MIC [20] of 0.05 µg/mL (≈ 0.137 µM). The MIC [21] was 0.05 µg/mL, the MIC [22] was 0.78 µg/mL (≈ 2.13 µM) and the MIC [23] was 0.05 µg/mL. It also gave an MIC [24] of 0.1 µg/mL, an MIC [25] of 0.05 µg/mL and an MIC [26] of 0.2 µg/mL (≈ 0.547 µM). It also gave an MIC [27] of 0.013 µg/mL (≈ 0.0355 µM), an MIC [28] of 0.0125 µg/mL (≈ 0.0342 µM) and an MIC [29] of 0.1 µg/mL (≈ 0.273 µM). It also gave an MIC [30] of 6 ng/mL (≈ 0.0164 µM), an MIC [31] of 0.78 µg/mL and an MIC [32] of 0.2 µg/mL. For the same compound, the MIC [33] was 0.0125 µg/mL (≈ 0.0342 µM).
